Measured values: US20180256495A1 (MEDRx Co., Ltd., priority 2008, published 2018)
Like-named read-outs stand apart in the source and are kept apart here.

Assays:
[1] = cited from earlier work; for logP of organic acid (calc.) / Log P of organic acid (calc.) / logP (Log P of organic acid, Calculated): organic acid itself; for logP (calc.): basic drug itself, value published in PubMed; for log P: lipid solubility of the named drug or organic acid itself
[2] = State of the liquid preparation (precipitation, homogeneity, solubility or dispersion of the salt)
[3] = Evaluation test of transdermal absorbability (skin penetrability) with a Franz diffusion cell; format: in vitro ADME; conditions: free basic drug, liquid preparation 2 w/w %, rat skin, 32° C.
[4] = stated in brackets in the synthesis examples; cited from earlier work
[5] = wrapped cell, full remark: tendency of salt to be divided into two layers

Row | SMILES | Log P of organic acid (calc.) ([1]; value from PubMed) | logP of organic acid (calc.) ([1]; value from PubMed) | Penetrated Amount (amount of skin-penetrated drug during 3 hours) [3] [μg/cm^2] | logP (Log P of organic acid, Calculated) ([1]; value from PubMed) | also measured
1 | CCCCCCCC(=O)O [octanoic acid] | 3 | 3 |  |  | logP of organic acid (calc.) [1]: 3
2 | CC(O)C(=O)O.CCN(CC)CC(=O)Nc1c(C)cccc1C [Lactic acid salt of lidocaine, lactic acid salt of lidocaine] |  |  |  |  | Remarks, Test Example 7: 2% liquid preparation (solvent system) ([2]; wrapped cell, full remark: homogeneously dispersed solution): homogeneously; Remarks, Example 13: 20% viscous liquid preparation (liquid paraffin) [2, 5]: tendency of salt to; Remarks, Example 14: 20% viscous liquid preparation (solvent + liquid paraffin) [2, 5]: tendency of salt to
3 | COc1cccc(C2(O)CCCCC2CN(C)C)c1 (stereo not drawn) [tramadol, reference compound] |  |  | 122 |  | logP (calc.) [1]: 2.4; log P [1]: 2.4
4 | CC(C)CCCCCCCCCCCCCCC(=O)O [isostearic acid] | 7 | 7 |  | 7 | logP of organic acid (calc.) [1]: 7
5 | COCC(=O)O [methoxyacetic acid] | −0.6 | −0.6 |  | −0.6 | logP of organic acid (calc.) [1]: −0.6; Remarks (state of the liquid preparation) ([2]; morphine 2 w/w % liquid preparation with the row's acid, wrapped cell 'small amount of' + 'precipitation' = small amount of white precipitation remained): homogeneous solution
6 | CC(=O)Oc1ccccc1C(=O)O [acetylsalicylic acid] |  |  |  | 1.4 | 
7 | CCCCC(CC)C(=O)O (stereo not drawn) [2-ethylhexanoic acid] |  |  |  | 2.7 | 
8 | CN(C)CCCN1c2ccccc2CCc2ccccc21 [imipramine] |  |  | 10 |  | 
9 | CC(O)CC(=O)O (stereo not drawn) [3-hydroxybutyric acid] |  |  |  | −0.5 | 
10 | O=C(O)c1ccc(O)cc1 [p-hydroxybenzoic acid] |  |  |  | 1.2 | 
11 | O=C(O)c1ccccc1O [salicylic acid] | 2.4 | 2.4 |  | 2.4 | 
12 | CC(C)=CCN1CCC2(C)c3cc(O)ccc3CC1C2C (stereo not drawn) [pentazocine, reference compound] |  |  | 40 |  | pKa [4]: 8.0; logP (calc.) [1]: 3.7; log P [1]: 3.7
13 | CC(=O)NCC(=O)O [N-acetylglycine] | −3.1 |  |  |  | logP of organic acid (calc.) [1]: −3.1
14 | CC(=O)CCC(=O)O [levulinic acid] | −0.4 | −0.4 |  | −0.4 | logP of organic acid (calc.) [1]: −0.4
15 | CCC(=O)O [propionic acid] | 0.2 | 0.2 |  |  | 
16 | CN(C)CCC=C1c2ccccc2CCc2ccccc21 [amitriptyline, reference compound] |  |  | 7 |  | logP (calc.) [1]: 4.9; log P [1]: 4.9
17 | CCc1ccc(C(=O)C(C)CN2CCCCC2)cc1 (stereo not drawn) [eperisone, reference compound] |  |  | 14 |  | logP (calc.) [1]: 3.6
18 | Cc1ccc(C(=O)C(C)CN2CCCCC2)cc1 (stereo not drawn) [tolperisone, reference compound] |  |  | 26 |  | logP (calc.) [1]: 3.1
